Data reported in US20160158200A1, “Combinations of Hepatitis C Virus Inhibitors” (priority 2013, published 2016).

System: HCV genotype-1a variant with glutamine 30 changed to glutamate in the NS5A protein
Format: cell-based
Conditions: test compound titrated with BMS-790052 fixed at 200 nM; genotype 1a Q30E replicon
Outline: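 Synergy was assessed by combining several fixed amounts of an NS5A-targeting compound with a titration of the second compound of interest.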

SMILES | Fold-Synergistic 1a (Q30E) [fold]
COC(=O)N(C)C(C)(C)C(=O)N[C@H](c1nc(-c2ccc(-c3ccc(-c4c[nH]c([C@@H](NC(=O)C(C)(C)N(C)C(=O)OC)C(C)(C)C)n4)cc3)cc2)c[nH]1)C(C)(C)C [Compound L-18] | >100
CC1(C)CCN(C(=O)C(=O)N2CCC(F)(F)CC2)C1c1nc(-c2ccc(-c3ccc(-c4c[nH]c(C5N(C(=O)C(=O)N6CCC(F)(F)CC6)CCC5(C)C)n4)cc3)cc2)c[nH]1 (stereo not shown) [Compound W-222] | >100
CC1(C(=O)NC(c2nc(-c3ccc(-c4ccc(-c5c[nH]c(C(NC(=O)C6(C)CCCC(F)(F)CO6)C(C)(C)C)n5)cc4)cc3)c[nH]2)C(C)(C)C)CCCC(F)(F)CO1 (stereo not shown) [Compound Y-92] | >100
CC(C)(C)[C@H](Nc1ncc(Br)cn1)c1nc(-c2ccc(-c3ccc(-c4c[nH]c([C@@H](Nc5ncc(Br)cn5)C(C)(C)C)n4)cc3)cc2)c[nH]1 [Compound W-16A] | >10
COCC(C)(C)C(=O)N[C@H](c1nc(-c2ccc(-c3ccc(-c4c[nH]c([C@@H](NC(=O)C(C)(C)COC)C(C)(C)C)n4)cc3)cc2)c[nH]1)C(C)(C)C [Compound P-12] | >100
CC(C)(C)OC(=O)N1CC(C)(C(=O)NC(c2nc(-c3ccc(-c4ccc(-c5c[nH]c(C(NC(=O)C6(C)CN(C(=O)OC(C)(C)C)C6)C(C)(C)C)n5)cc4)cc3)c[nH]2)C(C)(C)C)C1 [Compound L-63] | >100
CC(C)[C@H](NC(=O)Cc1ccccc1Cl)c1ncc(-c2ccc(-c3ccc(-c4cnc([C@@H](NC(=O)Cc5ccccc5Cl)C(C)C)[nH]4)cc3)cc2)[nH]1 [Compound S-38] | >100
CC(C)(C)C(NC(=O)CC1CCCO1)c1nc(-c2ccc(-c3ccc(-c4c[nH]c(C(NC(=O)CC5CCCO5)C(C)(C)C)n4)cc3)cc2)c[nH]1.O=C(O)C(F)(F)F.O=C(O)C(F)(F)F (mixture of isomers) [Compound L-70] | >100
CC(C)(C(=O)N[C@H](c1nc(-c2ccc(-c3ccc(-c4c[nH]c([C@@H](NC(=O)C(C)(C)C(O)C5CC(F)(F)C5)C(C)(C)C)n4)cc3)cc2)c[nH]1)C(C)(C)C)C(O)C1CC(F)(F)C1 (single isomer, unassigned) [Compound N-144C] | >100
CC(C)(C)C(=O)N[C@H](c1ncc(-c2ccc(-c3ccc(-c4cnc([C@@H](NC(=O)C(C)(C)C)C5(C)CC5)[nH]4)cc3)cc2)[nH]1)C1(C)CC1 [Compound Y-35] | >100
CCOc1ccccc1C(=O)N[C@H](c1nc(-c2ccc(-c3ccc(-c4c[nH]c([C@@H](NC(=O)c5ccccc5OCC)C(C)(C)C)n4)cc3)cc2)c[nH]1)C(C)(C)C [Compound P-29] | >100
CC(C)[C@H](NC(=O)C(C)(C)C)c1nc(-c2ccc3c(c2)CCc2cc(-c4c[nH]c([C@@H](NC(=O)C(C)(C)C)C(C)C)n4)ccc2-3)c[nH]1 [Compound N-74] | >100
CC1(C(=O)N[C@H](c2nc(-c3ccc(-c4ccc(-c5c[nH]c([C@@H](NC(=O)C6(C)CCCCC6O)C(C)(C)C)n5)cc4)cc3)c[nH]2)C(C)(C)C)CCCCC1O (single isomer, unassigned) [Compound Y-105] | >100
CC(C)[C@H](NC(=O)c1cccc(F)c1)c1ncc(-c2ccc(-c3ccc(-c4cnc([C@@H](NC(=O)c5cccc(F)c5)C(C)C)[nH]4)cc3)cc2)[nH]1 [Compound S-73] | >100
COC(C)(CCO)C(=O)N[C@H](c1nc(-c2ccc(-c3ccc(-c4c[nH]c([C@@H](NC(=O)C(C)(CCO)OC)C(C)(C)C)n4)cc3)cc2)c[nH]1)C(C)(C)C (single isomer, unassigned) [Compound W-258] | >100
CC(C)(C)OC(=O)NC1(C(=O)N[C@H](c2nc(-c3ccc(-c4ccc(-c5c[nH]c([C@@H](NC(=O)C6(NC(=O)OC(C)(C)C)CC6(F)F)C(C)(C)C)n5)cc4)cc3)c[nH]2)C(C)(C)C)CC1(F)F (single isomer, unassigned) [Compound W-14] | >100
